The text below walks through data of patent US20240383869A1, “ARYLACETYL INHIBITORS OF TG2 AND USES THEREOF” (UNIVERSITY OF OTTAWA, priority 2021, published 2024).

One data set concerns the target T1, hTG6 (Homo sapiens, UniProt O95932).
T1 sequence (O95932 1-706): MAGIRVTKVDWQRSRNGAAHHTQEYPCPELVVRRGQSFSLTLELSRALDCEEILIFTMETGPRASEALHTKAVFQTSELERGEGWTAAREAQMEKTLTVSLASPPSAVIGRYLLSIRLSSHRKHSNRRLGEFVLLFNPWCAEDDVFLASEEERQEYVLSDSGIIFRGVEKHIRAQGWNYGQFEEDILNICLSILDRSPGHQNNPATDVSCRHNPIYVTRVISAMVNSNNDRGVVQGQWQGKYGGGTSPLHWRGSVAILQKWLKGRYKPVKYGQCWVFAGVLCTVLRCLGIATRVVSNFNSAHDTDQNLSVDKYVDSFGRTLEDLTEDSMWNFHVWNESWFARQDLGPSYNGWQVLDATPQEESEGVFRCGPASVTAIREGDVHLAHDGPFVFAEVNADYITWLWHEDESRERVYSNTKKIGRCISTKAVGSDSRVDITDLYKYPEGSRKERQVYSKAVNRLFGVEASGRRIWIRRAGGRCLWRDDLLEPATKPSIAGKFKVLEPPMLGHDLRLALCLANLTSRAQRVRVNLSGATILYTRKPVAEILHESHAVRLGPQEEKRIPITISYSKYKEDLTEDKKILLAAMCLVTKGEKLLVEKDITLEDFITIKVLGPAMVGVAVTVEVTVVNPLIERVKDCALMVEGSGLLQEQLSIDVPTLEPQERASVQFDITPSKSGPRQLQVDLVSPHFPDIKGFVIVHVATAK
As to the kind of experiment: Colorimetric transamidase activity assay, isozyme selectivity. In kind it is biochemical. Particulars: normalized [I]/α. As to the method:
Colorimetric transamidase activity assay. The activities of hTG1, hTG2 and hTG6 were measured via a colorimetric assay using the chromogenic substrate Cbz-Glu(γ-p-nitrophenyl ester)Gly (AL5), as described (Leblanc, A. et al., “Kinetic studies of guinea pig liver transglutaminase reveal a general-base-catalyzed deacylation mechanism.” Biochemistry 2001, 40 (28), 8335-8342). Assays were conducted at 25° C. in 50 mM MOPS buffer (pH 6.95) containing 7.5 mM CaCl2. […] Stock solutions of the inhibitors were made in water ranging in concentration from 100-500 μM. The reaction was initiated with the addition of enzyme, 0.10 μM hTG1, 0.25 μM hTG2 (4.6 mU/mL) or 0.32 μM hTG6. Formation of hydrolysis product, p-nitrophenolate (pNP), was monitored at 405 nm in a polystyrene 96-well microplate using a BioTek Synergy 4 plate reader. The observed first-order rate constants of inactivation (kobs) were determined via non-linear regression fit to a mono-exponential model (Eqn 1) of absorbance versus time curves. These rate constants (kobs) were in turn fit to a saturation kinetics model (Eqn 2), by non-linear regression, providing the kinetic parameters kinact and KI, as previously described by Stone and Hofsteenge (Stone, S. R. and Hofsteenge, J., “Specificity of activated human protein C.” Biochem. J. 1985, 230 (2), 497-502). […] Experiments were completed in triplicate at minimum.

A short description of another data set: Plasma stability. The data set is classed as in vitro ADME.
The nature of data set [1]: Metabolic stability in human hepatocyte model. The data set is classed as in vitro ADME. The following applies: hepatocytes; for hepatocyte CLint: calculated intrinsic clearance; for half-life: read-out: Hepatocyte t½. As to the method: The metabolic stabilities of inhibitors 72 and 74 were also evaluated in a human hepatocyte model. The half-lives and calculated intrinsic clearance shown in Table 6 are indicative of moderate stability.

The next data set is described as follows: Protein binding. The data set is classed as in vitro ADME.
Data set [2] in a line: PAMPA passive diffusion across a lipid membrane. In kind it is in vitro ADME. As for the experimental part: Passive diffusion across a lipid membrane was measured by PAMPA for both inhibitors 72 and 74. The values shown in Table 6 indicate both compounds were at least moderately permeant.
Another data set concerns MDCK − MDR1. As to the kind of experiment: MDCK-MDR1 permeability. In kind it is in vitro ADME. Particulars: for MDCK − MDR1 Papp (A→B): apical to basolateral; for MDCK − MDR1 Papp (B→A): basolateral to apical.
In a further data set the test system is SCC-13 cells. As to the kind of experiment: ECS cell invasion through Matrigel (Transwell). In kind it is cell-based. The following applies: 0-100 μM inhibitor, 18 h, read-out: EC50 for inhibition of ECS invasion. As for the experimental part:
One well-known property of tumour-initiating cells associated with cancer metastasis is the enhanced ability to invade Matrigel (collagen). For example, it has been shown that epidermal cancer stem (ECS) cells invade Matrigel more efficiently than non-stem cancer cells, and that these properties are associated with enhanced tumour formation (Adhikary, G. et al., PLoS ONE 2013, 8, e84324. https://doi.org/10.1371/journal.pone.0084324). We have shown previously that ˜20 μM of NC9 and 3.9 μM of VA4 can reduce ECS cell invasion through Matrigel by ˜50% relative to vehicle-treated cells (Akbar, A. et al., J. Med. Chem. 2017, 60, 7910-7927. https://doi.org/10.1021/acs.jmedchem.7b01070; Fisher, M. L. et al., Oncotarget 2015, 6, 20525-20539. https://doi.org/10.18632/oncotarget.3890).
Materials and Methods for cell invasion data. To measure cell invasion, Matrigel (Corning, catalogue no. 354234) was diluted to 250 μg/mL and 120 μL was added to the upper chambers of a Transwell plate (Corning, no. 353097, 1-cm diameter, 8-μm pore size) and allowed to solidify. SCC-13 cells were suspended in spheroid medium (Fisher, M. L. et al., Cancer Res. 2016, 76, 7265-7275. https://doi.org/10.1158/0008-5472.can-16-2032; Adhikary, G. et al., Carcinogenesis 2015, 36, 800-810. https://doi.org/10.1093/carcin/bgv064) containing 1% foetal calf serum (FCS), and 20,000 cells were plated into each upper chamber atop the Matrigel. The bottom chamber contained spheroid medium supplemented with 10% FCS and 0-100 μM of inhibitor. After incubation for 18 h in a 37° C. incubator, cells in the top chamber were removed with a swab and cells on the lower surface of the membrane were fixed with 4% paraformaldehyde and the nuclei were stained with 4′,6-diamidino-2-phenylindole. Cell number was counted in multiple fields (n=4) using a fluorescence microscope, normalized with respect to the number counted in the presence of vehicle only, and expressed as mean±standard deviation.

On to `C=CC(=O)NCCCC[C@H](NC(=O)OCc1ccccc1)C(=O)N1CCN(C(=O)c2cccc3ccccc23)CC1` [AA9, reference compound], for which the “inhibition of TG6” value at hTG6 is recorded as “none of these inhibitors showed any detectable inhibition”.
In the case of `C=CC(=O)NCCCC[C@H](NC(=O)Cc1ccccc1F)C(=O)N1CCN(C(=O)c2cccc3ccccc23)CC1` [Inhibitor 72, (S)-N-(6-(4-(1-naphthoyl)piperazin-1-yl)-5-(2-(2-fluorophenyl)acetamido)-6-oxohexyl)acrylamide], the “inhibition of TG6” value on hTG6 is recorded as “none of these inhibitors showed any detectable inhibition”. Also, the “Plasma t½” value in “Plasma stability” is 17.92 h. Besides, in data set [1], the hepatocyte CLint is 2.37 µL/min/1e6 cells and the half-life was 9.73 h. Also, in “Protein binding”, the “Protein Binding” value came out at 84% and the “Protein Binding Recovery” value came out at 86%. The “PAMPA −Log [Pe (cm/s)]” value in data set [2] turned out to be 5.44. In the data set on MDCK − MDR1, the “MDCK − MDR1 Papp (A→B)” value was 0.29 10^−6 cm/s and the “MDCK − MDR1 Papp (B→A)” value is on record as 18.2 10^−6 cm/s. For the same compound, the EC50 with SCC-13 cells was 77 µM.
As to `C=CC(=O)NCCCC[C@H](NC(=O)Cc1ccccc1C)C(=O)N1CCN(C(=O)c2cccc3ccccc23)CC1` [Inhibitor 74, (S)-N-(6-(4-(1-naphthoyl)piperazin-1-yl)-5-(2-(2-methylphenyl)acetamido)-6-oxohexyl)acrylamide], on hTG6, the “inhibition of TG6” value is reported as “none of these inhibitors showed any detectable inhibition”. Further, the “Plasma t½” value in the data set “Plasma stability” was found to be 9.47 h. Moreover, in data set [1], the hepatocyte CLint is 5.58 µL/min/1e6 cells and the half-life was 4.18 h. Also, in “Protein binding”, the “Protein Binding” value is 85% and the “Protein Binding Recovery” value is given as 93%. In data set [2], the “PAMPA −Log [Pe (cm/s)]” value was 5.03. In the data set on MDCK − MDR1, the “MDCK − MDR1 Efflux Ratio” value amounted to 51.6, the “MDCK − MDR1 Papp (A→B)” value was 0.32 10^−6 cm/s and the “MDCK − MDR1 Papp (B→A)” value is 16.5 10^−6 cm/s. Besides, the EC50 in the data set on SCC-13 cells was 119 ± 5 µM.
